≈ marks a conversion by molar mass, not a printed value.
Key:
[1] = test system: Mycobacterium tuberculosis; test: Antitubercular activity against Mycobacterium tuberculosis MDR-FJ05189 assessed as inhibition of bacterial growth by microplate alamar blue assay; format: functional
[2] = test system: Mycobacterium tuberculosis; test: Antitubercular activity against Mycobacterium tuberculosis XDR-FJ05195 assessed as inhibition of bacterial growth by microplate alamar blue assay; format: functional
[3] = test system: Staphylococcus epidermidis; test: Antibacterial activity against Staphylococcus epidermidis; format: functional
Escherichia coli = test: Antibacterial activity against ESBL negative Escherichia coli ATCC 25922; format: functional
[4] = test system: Mycobacterium tuberculosis; test: Antitubercular activity against Mycobacterium tuberculosis H37Rv ATCC 27294 assessed as inhibition of bacterial growth by microplate alamar blue assay; format: functional
[5] = test system: Mycobacterium tuberculosis; test: Antitubercular activity against Mycobacterium tuberculosis MDR-FJ05120 assessed as inhibition of bacterial growth by microplate alamar blue assay; format: functional
[6] = test system: Mycobacterium tuberculosis; test: Antitubercular activity against Mycobacterium tuberculosis STB-FJ05060 assessed as inhibition of bacterial growth by microplate alamar blue assay; format: functional
[7] = test system: Mycobacterium tuberculosis; test: Antitubercular activity against Mycobacterium tuberculosis STB-FJ05349 assessed as inhibition of bacterial growth by microplate alamar blue assay; format: functional
Staphylococcus aureus = test: Antibacterial activity against methicillin susceptible Staphylococcus aureus ATCC 29213; format: functional
[8] = test system: Mycobacterium tuberculosis; test: Antimycobacterial activity against Mycobacterium tuberculosis H37Rv; format: functional
[9] = (§1) Cytotoxicity against African green monkey Vero cells; format: toxicity, cell-based, Chlorocebus sabaeus; settings: African green monkey, Vero cells
[10] = Cytotoxicity against African green monkey Vero cells assessed as inhibition of cell growth incubated for 72 hrs by MTT assay; format: toxicity, cell-based, Chlorocebus sabaeus
[11] = test system: Mycobacterium tuberculosis; test: Antimycobacterial activity against Mycobacterium tuberculosis H37Rv assessed as inhibition of bacterial growth incubated for 5 days by alamar blue assay; format: functional; settings: 120 h, time 5 day
[12] = test system: Mycobacterium tuberculosis; test: Antimycobacterial activity against Mycobacterium tuberculosis H37Rv […]; format: functional
[13] = Cytotoxicity against HEK293T cells assessed as reduction in cell viability; format: toxicity, cell-based, HEK-293T; settings: human
Vero = test: as §1; format: toxicity, cell-based, Chlorocebus sabaeus; settings: chlorocebus sabaeus, vero
[14] = test system: Mycobacterium tuberculosis; test: Antitubercular activity against Mycobacterium tuberculosis H37Rv by resazurin microtitre assay; format: functional
[15] = test system: Mycobacterium tuberculosis; test: Antimycobacterial activity against Mycobacterium tuberculosis H37Rv incubated for 2 weeks; format: functional; settings: 336 h
[16] = test system: Mycobacterium tuberculosis; test: Antimycobacterial activity against Mycobacterium tuberculosis H37Rv incubated for 3 weeks; format: functional; settings: 504 h
[17] = test system: Mycobacterium tuberculosis; test: Antimycobacterial activity against Mycobacterium tuberculosis H37Rv incubated for 4 weeks; format: functional; settings: 672 h
[18] = test system: Mycobacterium tuberculosis; test: Antimycobacterial activity against Mycobacterium tuberculosis H37Rv incubated for 5 weeks; format: functional; settings: 840 h
[19] = test system: Mycobacterium tuberculosis; test: Antitubercular activity against Mycobacterium tuberculosis H37Rv assessed as inhibition of bacterial growth by alamar blue assay; format: functional
[20] = test system: Mycobacterium tuberculosis; test: Antitubercular activity against dormant stage of Mycobacterium tuberculosis H37Ra; format: functional
[21] = test system: Mycobacterium tuberculosis; test: Antitubercular activity against active stage of Mycobacterium tuberculosis H37Ra; format: functional

Work on `O=C(Nc1nc(-c2ccccn2)cs1)c1ccc(Cl)s1` yielded an MIC [1] of 4 µg/mL (≈ 12.4 µM), an MIC [2] of 0.25 µg/mL (≈ 0.777 µM) and an MIC [3] of 32 µg/mL (≈ 99.4 µM). It also gave an MIC (Escherichia coli) of 256 µg/mL (≈ 795 µM), an MIC [4] of 0.08 µg/mL (≈ 0.249 µM) and an MIC [5] of 0.25 µg/mL (≈ 0.777 µM). The MIC [6] was 0.08 µg/mL (≈ 0.249 µM), the MIC [7] was 0.08 µg/mL (≈ 0.249 µM) and the MIC (Staphylococcus aureus) was 32 µg/mL (≈ 99.4 µM).
With `CC(=O)N1N=C(c2ccc3oc(-c4ccc(O)cc4)nc3c2)CC1c1cccs1` (stereo unspecified) the MIC [8] was 0.8 µg/mL (≈ 1.98 µM) and the IC50 [9] was 32.5 µg/mL (≈ 80.6 µM).
With `Cc1cc(O)n2nc(Nc3ccc(Cl)c(Cl)c3)c(C(N)=O)c2n1` the IC50 at 72 h [10] was 29 µg/mL (≈ 82.4 µM) and the MIC [11] was 6.25 µg/mL (≈ 17.7 µM).
For `CC(=O)N1N=C(c2ccc3oc(NC(=O)CCl)nc3c2)CC1c1cccs1` (stereo unspecified), the MIC [8] was 6.25 µg/mL (≈ 15.5 µM) and the IC50 [9] was > 62.5 µg/mL.
`Cc1ccc(NC(=O)c2c(Nc3ccc(Cl)cc3)nn3c(O)cc(C)nc23)cc1` showed an IC50 at 72 h [10] of 21 µg/mL (≈ 51.5 µM) and an MIC [11] of 3.12 µg/mL (≈ 7.65 µM).
`CC(=O)N1/C(=C/c2ccc(-c3ccc(C)cc3)cc2)C(=O)c2ccccc21` gave an MIC [12] of 14.8 µM (≈ 5.23 µg/mL), an MIC90 [8] of 2.71 µM (≈ 0.958 µg/mL) and an MIC99 [8] of 4.37 µM (≈ 1.54 µg/mL).
`CC(=O)N1/C(=C/c2ccc(-c3ccccc3)cc2)C(=O)c2ccccc21` gave an MIC [12] of 12.3 µM (≈ 4.17 µg/mL), an MIC90 [8] of 1.32 µM (≈ 0.448 µg/mL) and an MIC99 [8] of 2.29 µM (≈ 0.777 µg/mL).
With `COc1ccccc1NC(=O)c1c(Nc2cccc(C)c2)nn2c(O)cc(C)nc12` the IC50 at 72 h [10] was 21.3 µg/mL (≈ 52.7 µM) and the MIC [11] was 3.12 µg/mL (≈ 7.73 µM).
For `CC(=O)N1/C(=C/c2ccc(Br)cc2)C(=O)c2ccccc21`, the MIC [12] was 15.2 µM (≈ 5.2 µg/mL), the MIC90 [8] was 0.31 µM (≈ 0.106 µg/mL) and the MIC99 [8] was 0.37 µM (≈ 0.127 µg/mL).
Compound `CC(=O)N1/C(=C/c2ccc(-c3ccc(Cl)cc3)cc2)C(=O)c2ccccc21` has an MIC [12] of 8.37 µM (≈ 3.13 µg/mL), an MIC90 [8] of 2.32 µM (≈ 0.867 µg/mL) and an MIC99 [8] of 4.05 µM (≈ 1.51 µg/mL). The CC50 [13] was 7 µM.
`Cc1cc(O)n2nc(Nc3ccc(F)c(F)c3)c(C(=O)Nc3ccc(F)cc3)c2n1` gave an IC50 at 72 h [10] of 13.6 µg/mL (≈ 32.8 µM) and an MIC [11] of 0.8 µg/mL (≈ 1.94 µM).
For `COc1cccc(C(=O)Nc2nc3cc(C4=NN(C(C)=O)C(c5cccs5)C4)ccc3o2)c1` (stereo unspecified), the MIC [8] was 1.6 µg/mL (≈ 3.47 µM) and the IC5 (Vero) was > 62.5 µg/mL.
For `NNC(=O)c1ccncc1` [ISONIAZID], the MIC [8] was 0.5 µg/mL (≈ 3.65 µM), the MIC [1] was < 0.5 µg/mL and the MIC [2] was > 256 µg/mL. The MIC [4] was 0.125 µg/mL (≈ 0.911 µM), the MIC [5] was 4 µg/mL (≈ 29.2 µM) and the MIC [6] was < 0.5 µg/mL. For the same compound, the MIC [7] was < 0.5 µg/mL, the MIC [11] was 0.5 µg/mL (≈ 3.65 µM) and the MIC [14] was 0.19 µg/mL (≈ 1.39 µM).
In the case of `C[C@H]1COc2c(N3CCN(C)CC3)c(F)cc3c(=O)c(C(=O)O)cn1c23.C[C@H]1COc2c(N3CCN(C)CC3)c(F)cc3c(=O)c(C(=O)O)cn1c23.O` [LEVOFLOXACIN], the MIC [15] is reported as 0.25 µg/mL, the MIC [16] is reported as 0.25 µg/mL and the MIC [17] is reported as 0.25 µg/mL. The MIC [3] was 0.25 µg/mL, the MIC [18] was 0.25 µg/mL and the MIC (Staphylococcus aureus) was 0.25 µg/mL.
For `NC(=O)c1cnccn1` [PYRAZINAMIDE], the MIC [8] was 3.12 µg/mL (≈ 25.3 µM), the MIC [19] was 3.12 µg/mL (≈ 25.4 µM) and the MIC [11] was 3.12 µg/mL (≈ 25.3 µM). For the same compound, the MIC [14] was > 200 µg/mL.
`CO[C@H]1/C=C/O[C@@]2(C)Oc3c(C)c(O)c4c(O)c(c(/C=N/N5CCN(C)CC5)c(O)c4c3C2=O)NC(=O)/C(C)=C\C=C\[C@H](C)[C@H](O)[C@@H](C)[C@@H](O)[C@@H](C)[C@H](OC(C)=O)[C@@H]1C` [RIFAMPIN] showed an MIC [12] of 0.377 µM (≈ 0.31 µg/mL), an MIC90 [8] of 0.00291 µM (≈ 0.00239 µg/mL) and an MIC99 [8] of 0.00482 µM (≈ 0.00397 µg/mL). For the same compound, the MIC [20] was 0.91 µg/mL (≈ 1.11 µM), the MIC [21] was 0.75 µg/mL (≈ 0.911 µM) and the MIC [1] was > 256 µg/mL. For the same compound, the MIC [2] was 4 µg/mL (≈ 4.86 µM), the MIC [4] was 0.125 µg/mL (≈ 0.152 µM) and the MIC [5] was > 256 µg/mL. For the same compound, the MIC [6] was < 0.5 µg/mL, the MIC [7] was < 0.5 µg/mL and the MIC [14] was 0.049 µg/mL (≈ 0.0595 µM).
With `CN[C@@H]1[C@H](O[C@H]2[C@H](O[C@H]3[C@H](O)[C@@H](O)[C@H](N=C(N)N)[C@@H](O)[C@@H]3N=C(N)N)O[C@@H](C)[C@]2(O)C=O)O[C@@H](CO)[C@H](O)[C@H]1O` [STREPTOMYCIN] the MIC [8] was 6.25 µg/mL (≈ 10.7 µM), the MIC [19] was 6.25 µg/mL (≈ 10.7 µM) and the MIC [11] was 6.25 µg/mL (≈ 10.7 µM). The MIC [14] was 0.19 µg/mL (≈ 0.327 µM).

— ChEMBL document CHEMBL5244273, “Tuberculosis: An Overview of the Immunogenic Response, Disease Progression, and Medicinal Chemistry Efforts in the Last Decade toward the Development of Potential Drugs for Extensively Drug-Resistant Tuberculosis Strains” (J Med Chem, 2021)
